Series [1] concerns phosphorylated SYK (tyrosine 525/526). Nature of the series: Immunoblot of phospho-SYK Tyr525/526. The series is classed as cell-based, human. To be noted: MOLM-13, MV4-11, and OCI-AML3, 10-min treatment. How it is done:
(§1) Cell lines were serum starved overnight followed by a 10-min treatment. Cells were washed in ice-cold PBS then lysed in 1X Cell Lysis Buffer (CST) supplemented with proteinase and phosphatase inhibitors cocktail (Roche). Pierce BCA Protein Assay was used to quantify the protein lysates (Thermo Fisher Scientific, Waltham, MA). For Immunoblotting, 15–25 μg of protein lysate was prepared in 2X or 4X Laemmeli’s sample buffer (Bio-Rad Laboratories, Hercules, CA) and heated for 5 min at 100 °C. Samples were separated on 8% sodium dodecyl sulfate polyacrylamide gel and transferred onto nitrocellulose membrane (Bio-Rad Laboratories, Hercules, CA). The membranes were blocked for 1 h in Blocker BLOTTO Blocking Buffer (Thermo Fisher Scientific, Waltham, MA) or 5% non-fat milk followed by overnight incubation at 4 °C with primary antibody followed by HRP-conjugated secondary antibodies and visualized with chemiluminescent Pierce ECL Substrate (Thermo Fisher Scientific, Waltham, MA) on X-ray films.
Fig. 3 ARQ 531 modulates AML pro-survival kinases. Immunoblot analysis for MOLM-13, MV4-11, and OCI-AML3 AML cell lines (representative of 2-3 independent blots). […] Twenty to 25 μg of total protein lysate was loaded per lane. GAPDH, HSP90, or β-Actin were used as loading controls. a, b Modulation of phosphorylated SFK and downstream targets in FLT3-ITD cell lines MOLM-13 and MV-11, respectively. c, d Modulation of phosphorylated SYK and BTK in all three cell lines

The test system of series [2] is MOLM-13 disseminated AML xenograft. The series is described as follows: MOLM-13 disseminated xenograft, ARQ + Ven combination study (NCG mice). The series is classed as in vivo. The settings on record: 50 mg/kg ARQ 531 and/or 75 mg/kg venetoclax Q.D.P.O from 4 days post-engraftment until ERC; vehicle 25 days. Here is the method:
All experiments were conducted after approval of The Ohio State University Institutional Animal Care and Use Committee. Mice were randomized and enrolled for daily oral gavage (Q.D.P.O) treatment of vehicle or 50 mg/kg ARQ 531. Mice were treated until reaching early removal criteria (ERC) defined as 20% weight loss, lethargy, hind limb paralysis, moribund, anorexia, dehydration, hunched posture, severe diarrhea, breathing difficulties, or any abnormal neurological symptoms. […]
Fig. 7 BCL2 inhibition improves ARQ 531 in vivo activity. a Kaplan–Meier survival curve in the MOLM-13 xenograft after mice were treated with vehicle (N = 9) or 50 mg/kg ARQ 531 Q.D.P.O (N = 9) or 75 mg/kg venetoclax Q.D.P.O (N = 10) or 50 mg/kg ARQ 531 and 75 mg/kg venetoclax combination Q.D.P.O (N = 10) at 4 days post engraftment until ERC. b Noninvasive serial whole body bioluminescence imaging of ventral view to monitor leukemia progression and regression post treatment. Mice were injected with 150 mg/kg Firefly D-Luciferin for evaluation of tumor burden as determined by whole body bioluminescence imaging using IVIS imager

The subject of a further series is MOLM-13. Nature of the series: MTS proliferation assay 72 h, MOLM-13. The settings on record: MOLM-13, 1 µM, 72 hours MTS (ibrutinib 1 hour washout). On the technique in general: Tetrazolium assays rely on reduction of a dye to a coloured formazan, in cell work by metabolically active cells.
A further series deals with BTK phosphorylation. Nature of the series: Immunoblot of phospho-BTK. The series is classed as cell-based, human. Here is the method:
as §1, with “Cells” for “Cell lines were serum starved overnight followed by a 10-min treatment. Cells”
Immunoblot analysis for MOLM-13, MV4-11, and OCI-AML3 AML cell lines (representative of 2-3 independent blots). […] Twenty to 25 μg of total protein lysate was loaded per lane.
Background: Immunoblotting shows a protein as a band on a membrane.

For series [3], the system named is primary AML patient blasts. The series is described as follows: MTS proliferation assay, primary AML blasts co-cultured with HS5-GFP stroma cells, 96 h. The series is classed as cell-based, human. To be noted: HS5-GFP co-culture. An excerpt:
For in vitro cytotoxicity experiments (Fig. 1b–d), repeated measures models were used to account for correlations among observations from the same experiment. The percentage of live cells was compared at each concentration with DMSO. […] Mixed effects models were used in experiments described in Additional file 1: Table S4 and Fig. 2c to account for correlations within a single patient. Outcome data were first log-transformed to stabilize variances and reduce skewness. For survival experiments (Figs. 5 and 6a), Kaplan-Meier curves were produced and group differences for Fig. 5 and assessed by the log-rank test and for Fig. 6a, p values have been adjusted for multiple comparisons using Holm’s procedure. p values from experiments with multiple endpoints were adjusted for multiple comparisons using either Holm’s procedure or Dunnett’s test (all comparisons against vehicle/DMSO).
(§2) MTS proliferation assay using a human stroma co-culture assay. […] FLT3 wild-type (WT) samples (red) and FLT3-ITD (black). Colony-Forming Unit-Granulocyte and Macrophage (CFU-GM) assay. […] Number of colonies were counted after 14 days (c)

Series [4] relates to primary AML patient blasts. Nature of the series: Colony-Forming Unit-Granulocyte and Macrophage (CFU-GM) assay. The class given is cell-based, human. The settings on record: 0.1 µM, colonies counted after 14 days. How it is done:
Primary AML patient samples were treated and plated at 5000–10,000 cells in 1.1 ml methylcellulose supplemented with recombinant human stem cell factor, interleukin 3, granulocyte colony-stimulating factor, and granulocyte-macrophage colony-stimulating factor (MethoCult™, […] Technologies, Vancouver, Canada) per dish in duplicates. Colonies were counted after 14 days when using primary patient samples.
as §2

Series [5] relates to MOLM-13, MV4-11, and OCI-AML3 cell lines. The series is described as follows: Annexin/PI apoptosis assay 72 h. The class given is cell-based, human. The settings on record: increasing concentrations of ARQ 531 or 50 nM gilteritinib. Here is the method: Cells were treated for 72 h then stained for 20 min in 1X Annexin Binding buffer (BD Biosciences, Franklin Lakes, NJ) containing Annexin V-FITC and Propidium Iodine (Leinco Technologies, Fenton, MO). Live and apoptotic cells were measured using FC 500 flow cytometer and analyzed on Kaluza software (Beckman Coulter, Pasadena, CA).

The test system of series [6] is Ba/F3 FLT3-ITD pMIT SYK-TEL.
Description: (§3) CellTiter 96 Aqueous MTS reagent (Promega, Madison, WI) was added to cells followed by a 3-h incubation at 37 °C, 5% CO2. The absorbance was measured at 490 nm using DTX 880 plate reader and the half maximal inhibitory concentration (IC50) was calculated using GraphPad Prism 7 (GraphPad Software, La Jolla, CA) and SAS/STAT software (SAS v9.4 for Windows, SAS Institute, Inc., Cary, NC).

Where “and” joins values, the source holds several entries; their conditions need not be identical. Equal values may be shown once.

Description for Ba/F3 FLT3-ITD Parental: as §3

Broadly, the IC50 is the concentration that inhibits the measured activity by half. As to `CO[C@@H]1[C@H](N(C)C(=O)c2ccccc2)C[C@H]2O[C@]1(C)n1c3ccccc3c3c4c(c5c6ccccc6n2c5c31)C(=O)NC4` [Midostaurin, reference compound], the “effect on phosphorylated SYK (tyrosine 525/526)” value (“effect on phosphorylated SYK” for short) in series [1] is recorded as “down-modulated SYK phosphorylation only in the FLT3-ITD cell lines”. The IC50 with Ba/F3 FLT3-ITD Parental is 0.0954 µM and 0.0633 µM.

`CC1(C)CCC(CN2CCN(c3ccc(C(=O)NS(=O)(=O)c4ccc(NCC5CCOCC5)c([N+](=O)[O-])c4)c(Oc4cnc5[nH]ccc5c4)c3)CC2)=C(c2ccc(Cl)cc2)C1` [venetoclax, reference compound]: the survival in series [2] was 24 days.

As for `CC(C)(C)c1cc(NC(=O)Nc2ccc(-c3cn4c(n3)sc3cc(OCCN5CCOCC5)ccc34)cc2)no1` [quizartinib, Quizartinib], the “effect on phosphorylated SYK” value in [1] is “down-modulated SYK phosphorylation only in the FLT3-ITD cell lines”.

For the compound `c1cn2cc(-c3ccc4cn[nH]c4c3)nc(Nc3ccc(N4CCOCC4)cc3)c2n1` [entospletinib, Entospletinib, reference compound], the “in vitro anti-proliferative activity” value with MOLM-13 was “potently inhibited proliferation”.

Regarding `C=CC(=O)N1CCC[C@@H](n2nc(-c3ccc(Oc4ccccc4)cc3)c3c(N)ncnc32)C1` [ibrutinib, reference compound], the “effect on BTK phosphorylation” value in the series with BTK phosphorylation was “potently inhibit BTK phosphorylation”. The “in vitro anti-proliferative activity” value in the series on MOLM-13 is “only ARQ 531 demonstrated in vitro anti-proliferative activity”.

In the case of `CCc1nc(C(N)=O)c(Nc2ccc(N3CCC(N4CCN(C)CC4)CC3)c(OC)c2)nc1NC1CCOCC1` [Gilteritinib, reference compound], the “Estimated Ratio of proliferation versus vehicle (DMSO)” value is on record as 1.02 in [3] (0.005 µM); 1.05 in series [3] (0.01 µM); 1.06 in [3] (0.05 µM); 1.02 in series [3] (0.1 µM); 0.99 in series [3] (0.5 µM); 0.87 in series [3] (1 µM). The “Estimated Ratio of proliferation versus vehicle (DMSO)” value in series [3] (5 µM) is 0.78; in series [3] (10 µM) it was 0.56; in [3] (50 µM) it was 0.54. Further, in series [4], the “Estimated ratio of colony formation vs. DMSO” value was 0.67. Besides, in series [5], the “apoptosis / cytotoxicity (Annexin/PI)” value is “cytotoxic in the FLT3-ITD cell lines only”. Besides, in series [1], the “effect on phosphorylated SYK” value is “down-modulated SYK phosphorylation only in the FLT3-ITD cell lines”. For the same compound, the IC50 in series [6] was 0.651 µM and 0.415 µM and 0.456 µM.

The record behind these values is publication PMC6988309, “Preclinical efficacy for a novel tyrosine kinase inhibitor, ArQule 531 against acute myeloid leukemia” (Journal of Hematology & Oncology, 2020).
